In patent publication US20140228299A1, “PROPHYLACTIC AND THERAPEUTIC AGENT FOR NEUROLOGICAL DISEASES USING LIPOPROTEINS AND PROPHYLACTIC AND THERAPEUTIC METHOD FOR NEUROLOGICAL DISEASES” (National University Corporation Tokyo Medical and Dental …, priority 2011, published 2014):

Legend:
[1] = system: intracellular Ca2+ (LRP1 / NMDA receptor) in RGC; experiment: Intracellular Ca2+ increase in RGC after glutamate+glycine (Fluo-8 fluorescence); type: cell-based, rat; details: E-LP 100 ng protein/mL, 15 minutes before 300 μM glutamate+10 μM glycine
Method: The inflow of calcium into RGC was confirmed in the manner as described below. Specifically, RGC was incubated on a microdish at least for 14 days, followed by incubation at 37° C. for 30 minutes using 3 μM Fluo-8 acetoxymethyl ester (AAT Bioquest, Sunnyvale, Calif.). The resulting cells were washed twice with 500 μl of the above HBSS, and 300 μM glutamate and 10 μM glycine were poured. The fluorescence images were taken at every 500 msec by ORCA-R2 digital camera (Hamamatsu Photonics, Hamamatsu, Japan) and analyzed by MetaFluor fluorescence ratio imaging software (Molecular Devices, Sunnyvale, Calif.).
RGC was labeled with Fluo-8 acetoxymethyl ester for 30 minutes, and Glu (300 μM glutamate+10 μM glycine) was added thereto. Fluorescent ratio images were as represented by colors indicated by the color index shown at the lower side of FIG. 12A. The color was represented as Ratio 0 and Ratio 2 corresponding to the base fluorescent intensity (Ratio 1) before Glu stimulation. The panels on the left and right sides indicate Glu and Glu+E-LP, respectively. […] The scale bar is 80 μm.
FIGS. 12B and C show variations of fFuo-8 fluorescence represented by ΔF/F0. In the figures, F0 indicates the base fluorescence intensity before Glu stimulation. * and **: p<0.005 and p<0.0001 (Glu vs. Glu+E-LP). […]

[2] = system: α2-macroglobulin released from glia cells; experiment: α2-macroglobulin released from primary cultured glia cells (immunoblotting of culture supernatant); type: cell-based; details: 100 or 1,000 ng/mL; culture supernatant after 24 hours
Method: This example was to examine the amount of α2-macroglobulin released from the glia cells. To a culture mixture of the glia cells obtained by the primary culture, human lipoprotein containing apoE (100 or 1,000 ng/mL) was added, followed by collection of a culture supernatant after 24 hours. After the resulting supernatant was subjected to SDS-PAGE, it was detected by the immunoblotting using anti-α2-macroglobulin antibody. As a result, a decrease in the amount of α2-macroglobulin released from the glia cells was observed by the addition of the human lipoprotein containing apoE (FIG. 18).

[3] = system: glycogen synthase kinase 3β (GSK3β); experiment: GSK3β phosphorylation level in RGC after glutamic acid treatment (Western blotting); type: cell-based, rat; details: cells collected 18 hours after treatment with glutamic acid
Method: The apoptosis-like cells were computed by the nucleus staining with Hoechst 33342. […] The retinal glia cells were collected in 18 hours after treatment with glutamic acid, followed by Western blotting in which a rabbit anti-phosphorylated GSK3β (p-GSK3β) antibody and a rabbit anti-GSK3β antibody were used.
The immune blotting used in the above example was carried out in a manner as will be described below. Specifically, the lipoprotein obtained in each of the above examples was dissolved in 62.5 mM Tris-HCl (pH 6.8), 10% glycerol, 2% sodium dodecyl sulfate (SDS) and 5% β-mercaptoethanol (a sample buffer), and the resulting mixture was boiled for 5 minutes. The resulting protein was separated by electrophoresis using 0.1% SDS-containing polyacrylamide gel and then transferred to a polyvinylidene difluoride membrane. […]

Substance	increase in intracellular Ca2+ [1]	amount of α2-macroglobulin released from the glia cells [2]	phosphorylation level of GSK3β [3]
E-LP: reconstituted lipoprotein of 1-palmitoyl-2-oleyl-glycerophosphocoline, cholesterol and recombinant human apolipoprotein E, molar ratio 100:10:1 or 100:0:1	inhibits	decrease	
LP: reconstituted lipoprotein of POPC, cholesterol and recombinant human apolipoprotein E3			recovery
